In PubChem BioAssay AID1259407 (Chemical Carcinogenesis Research Information System (CCRIS), 2018):
Active and inactive are the calls of the source. No rule for the calls is given here.

System: CCRIS mutagenicity, Ames/micronucleus/aberration tests
Assay: CCRIS mutagenicity studies
[1] = Test System: AMES SALMONELLA TYPHIMURIUM, Strain/Indicator: TA98, Metabolic Activation: NONE, Method: PREINCUBATION
[2] = Test System: AMES SALMONELLA TYPHIMURIUM, Strain/Indicator: TA100, Metabolic Activation: NONE, Method: PREINCUBATION
[3] = Test System: AMES SALMONELLA TYPHIMURIUM, Strain/Indicator: TA1535, Metabolic Activation: NONE, Method: PREINCUBATION
[4] = Test System: AMES SALMONELLA TYPHIMURIUM, Strain/Indicator: TA98, Metabolic Activation: NONE, Method: STANDARD PLATE
[5] = Test System: AMES SALMONELLA TYPHIMURIUM, Strain/Indicator: TA100, Metabolic Activation: RAT, LIVER, S-9, AROCLOR 1254, Method: PREINCUBATION

Measured: mutagenic call

Cc1c[nH]c(=S)[nH]c1=O
inactive: Test System: AMES SALMONELLA TYPHIMURIUM, Strain/Indicator: TA97, Metabolic Activation: HAMSTER, LIVER, S-9, AROCLOR 1254 (10 OR 30%), Method: PREINCUBATION inactive; negative | Test System: AMES SALMONELLA TYPHIMURIUM, Strain/Indicator: TA97, Metabolic Activation: NONE, Method: PREINCUBATION inactive; negative | Test System: AMES SALMONELLA TYPHIMURIUM, Strain/Indicator: TA97, Metabolic Activation: RAT, LIVER, S-9, AROCLOR 1254 (10 OR 30%), Method: PREINCUBATION inactive; negative | Test System: AMES SALMONELLA TYPHIMURIUM, Strain/Indicator: TA98, Metabolic Activation: HAMSTER, LIVER, S-9, AROCLOR 1254 (10 OR 30%), Method: PREINCUBATION inactive; negative | [1] inactive; negative | Test System: AMES SALMONELLA TYPHIMURIUM, Strain/Indicator: TA98, Metabolic Activation: RAT, LIVER, S-9, AROCLOR 1254 (10 OR 30%), Method: PREINCUBATION inactive; negative | Test System: AMES SALMONELLA TYPHIMURIUM, Strain/Indicator: TA100, Metabolic Activation: HAMSTER, LIVER, S-9, AROCLOR 1254 (10 OR 30%), Method: PREINCUBATION inactive; negative | [2] inactive; negative | Test System: AMES SALMONELLA TYPHIMURIUM, Strain/Indicator: TA100, Metabolic Activation: RAT, LIVER, S-9, AROCLOR 1254 (10 OR 30%), Method: PREINCUBATION inactive; negative | Test System: AMES SALMONELLA TYPHIMURIUM, Strain/Indicator: TA1535, Metabolic Activation: HAMSTER, LIVER, S-9, AROCLOR 1254 (10 OR 30%), Method: PREINCUBATION inactive; negative | [3] inactive; negative | Test System: AMES SALMONELLA TYPHIMURIUM, Strain/Indicator: TA1535, Metabolic Activation: RAT, LIVER, S-9, AROCLOR 1254 (10 OR 30%), Method: PREINCUBATION inactive; negative

C1=CC2=C3OC3=C3c4ccc5ccccc5c4CC(=C1)C23 (configuration not stated)
active: [4] active; positive | Test System: AMES SALMONELLA TYPHIMURIUM, Strain/Indicator: TA98, Metabolic Activation: RAT, LIVER, S-9, AROCLOR 1254, Method: STANDARD PLATE active; positive

N#Cc1ccc2nc(N)[nH]c2c1
active: Test System: AMES SALMONELLA TYPHIMURIUM, Strain/Indicator: TA98, Metabolic Activation: RAT, LIVER, S-9, AROCLOR 1254, Method: PREINCUBATION active; positive | [5] active; positive

C=CC=O
inactive: End Point: IN VITRO CHROMOSOMAL ABERRATIONS, Test System: CHINESE HAMSTER OVARY CELLS, Metabolic Activation: NONE inactive; negative | End Point: IN VITRO CHROMOSOMAL ABERRATIONS, Test System: CHINESE HAMSTER OVARY CELLS, Metabolic Activation: RAT, LIVER, S-9, AROCLOR 1254 inactive; negative | Test System: AMES SALMONELLA TYPHIMURIUM, Strain/Indicator: TA102, Metabolic Activation: NONE, Method: STANDARD PLATE inactive; negative | [3] inactive; negative | Test System: AMES SALMONELLA TYPHIMURIUM, Strain/Indicator: TA1535, Metabolic Activation: RAT, LIVER, S-9, AROCLOR 1254, Method: PREINCUBATION inactive; negative | Test System: AMES SALMONELLA TYPHIMURIUM, Strain/Indicator: TA1537, Metabolic Activation: NONE, Method: PREINCUBATION inactive; negative | Test System: AMES SALMONELLA TYPHIMURIUM, Strain/Indicator: TA1537, Metabolic Activation: RAT, LIVER, S-9, AROCLOR 1254, Method: PREINCUBATION inactive; negative | Test System: AMES SALMONELLA TYPHIMURIUM, Strain/Indicator: TA1538, Metabolic Activation: NONE, Method: PREINCUBATION inactive; negative | Test System: AMES SALMONELLA TYPHIMURIUM, Strain/Indicator: TA1538, Metabolic Activation: RAT, LIVER, S-9, AROCLOR 1254, Method: PREINCUBATION inactive; negative | Test System: CHINESE HAMSTER OVARY, Strain/Indicator: AS52/6-THIOGUANINE, Metabolic Activation: NONE, Method: STANDARD PLATE inactive; negative | Test System: CHINESE HAMSTER OVARY, Strain/Indicator: CHO-K1-BH4 (HGPRT)/6-THIOGUANINE, Metabolic Activation: NONE inactive; negative | Test System: CHINESE HAMSTER OVARY, Strain/Indicator: CHO-K1-BH4 (HGPRT)/6-THIOGUANINE, Metabolic Activation: RAT, LIVER, S-9, AROCLOR 1254 inactive; negative | Test System: E. COLI, Strain/Indicator: WP2 (PKM101), Metabolic Activation: NONE, Method: STANDARD PLATE inactive; negative | Test System: E. COLI, Strain/Indicator: WP2 UVRA (PKM101), Metabolic Activation: NONE, Method: STANDARD PLATE inactive; negative | Test System: E. COLI, Strain/Indicator: WP2 UVRA, Metabolic Activation: NONE, Method: PREINCUBATION inactive; negative
active: [1] active; positive | Test System: AMES SALMONELLA TYPHIMURIUM, Strain/Indicator: TA100, Metabolic Activation: GLUTATHIONE, Method: PREINCUBATION active; positive | [2] active; positive | [5] active; positive | Test System: AMES SALMONELLA TYPHIMURIUM, Strain/Indicator: TA104, Metabolic Activation: GLUTATHIONE, Method: PREINCUBATION active; positive | Test System: AMES SALMONELLA TYPHIMURIUM, Strain/Indicator: TA104, Metabolic Activation: NONE, Method: PREINCUBATION active; positive | Test System: AMES SALMONELLA TYPHIMURIUM, Strain/Indicator: TA2638, Metabolic Activation: NONE, Method: STANDARD PLATE active; positive | Test System: CHINESE HAMSTER V-79, Strain/Indicator: V-79/6-THIOGUANINE, Metabolic Activation: NONE active; positive

CNC(=O)NOC(=O)N(C)C(=O)NC
inactive: [4] inactive; negative | Test System: AMES SALMONELLA TYPHIMURIUM, Strain/Indicator: TA98, Metabolic Activation: RAT, LIVER, S-9, Method: STANDARD PLATE inactive; negative | Test System: AMES SALMONELLA TYPHIMURIUM, Strain/Indicator: TA100, Metabolic Activation: NONE, Method: STANDARD PLATE inactive; negative
